Measured values: PubChem BioAssay AID330 (DTP/NCI, 2004)
Where “and” joins values, the source holds several entries; their conditions need not be identical. Identical values can stand only once. Toxic doses and inconclusive results are not listed.

System: P388 leukemia ip, CD2F1 mice, survival T/C
Test: NCI In Vivo Anticancer Drug Screen. Data for tumor model P388 Leukemia (intraperitoneal) in CD2F1 (CDF1) mice
Conditions: endpoint: median survival time, higher = longer survival
Procedure, shortened: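 Mice carrying the transplanted tumor received test compound or vehicle. Survival was recorded in each group, and the value is the treated-group measurement divided by that of the vehicle-treated control group.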

[1] = dose: 6.25 mg/kg/injection, schedule: Q01DX005 (ip), vehicle: saline with Tween-80
[2] = dose: 12.5 mg/kg/injection, schedule: Q01DX005 (ip), vehicle: saline with Tween-80
[3] = dose: 25.0 mg/kg/injection, schedule: Q01DX005 (ip), vehicle: saline with Tween-80
[4] = dose: 50.0 mg/kg/injection, schedule: Q01DX005 (ip), vehicle: Klucel (hydroxypropylcellulose) (HPC)
[5] = dose: 100.0 mg/kg/injection, schedule: Q01DX005 (ip), vehicle: Klucel (hydroxypropylcellulose) (HPC)
[6] = dose: 200.0 mg/kg/injection, schedule: Q01DX005 (ip), vehicle: Klucel (hydroxypropylcellulose) (HPC)
[7] = dose: 50.0 mg/kg/injection, schedule: Q01DX005 (ip), vehicle: saline with Tween-80
[8] = dose: 100.0 mg/kg/injection, schedule: Q01DX005 (ip), vehicle: saline with Tween-80
[9] = dose: 200.0 mg/kg/injection, schedule: Q01DX005 (ip), vehicle: saline with Tween-80
[10] = dose: 100.0 mg/kg/injection, schedule: Q01DX009 (ip), vehicle: saline with Tween-80
[11] = dose: 200.0 mg/kg/injection, schedule: Q01DX009 (ip), vehicle: saline with Tween-80
[12] = dose: 100.0 mg/kg/injection, schedule: Q01DX001 (ip), vehicle: saline with Tween-80
[13] = dose: 200.0 mg/kg/injection, schedule: Q01DX001 (ip), vehicle: saline with Tween-80
[14] = dose: 60.0 mg/kg/injection, schedule: Q01DX005 (ip), vehicle: Klucel (hydroxypropylcellulose) (HPC)
[15] = dose: 120.0 mg/kg/injection, schedule: Q01DX005 (ip), vehicle: Klucel (hydroxypropylcellulose) (HPC)
[16] = dose: 240.0 mg/kg/injection, schedule: Q01DX005 (ip), vehicle: Klucel (hydroxypropylcellulose) (HPC)

SMILES: CSc1nc2c(nnn2C2OC(CO)C(O)C(O)C2O)c(=O)n1C (stereo unspecified)
- T/C (dose: 60.0 mg/kg/injection, schedule: Q01DX005 (ip), vehicle: saline): 97 % of control
- T/C (dose: 120.0 mg/kg/injection, schedule: Q01DX005 (ip), vehicle: saline): 97 % of control
- T/C (dose: 240.0 mg/kg/injection, schedule: Q01DX005 (ip), vehicle: saline): 100 % of control

SMILES: COc1cc2c(c(OC)c1OC)-c1ccc(SC)c(=O)cc1[C@@H](NC(=O)CO)CC2
- T/C (dose: 0.1 mg/kg/injection, schedule: Q01DX009 (ip), vehicle: other): 150 % of control
- T/C (dose: 0.2 mg/kg/injection, schedule: Q01DX009 (ip), vehicle: other): 157 % of control and 172 % of control

SMILES: C[n+]1cc(-c2ccccc2)cc(-c2ccccc2)c1
- T/C (dose: 3.12 mg/kg/injection, schedule: Q01DX005 (ip), vehicle: Klucel (hydroxypropylcellulose) (HPC)): 104 % of control
- T/C (dose: 3.12 mg/kg/injection, schedule: Q01DX005 (ip), vehicle: saline): 103 % of control
- T/C (dose: 6.25 mg/kg/injection, schedule: Q01DX005 (ip), vehicle: Klucel (hydroxypropylcellulose) (HPC)): 109 % of control
- T/C [1]: 105 % of control
- T/C (dose: 6.25 mg/kg/injection, schedule: Q01DX005 (ip), vehicle: saline): 97 % of control
- T/C (dose: 12.5 mg/kg/injection, schedule: Q01DX005 (ip), vehicle: Klucel (hydroxypropylcellulose) (HPC)): 104 % of control
- T/C [2]: 100 % of control
- T/C (dose: 12.5 mg/kg/injection, schedule: Q01DX005 (ip), vehicle: saline): 96 % of control
- T/C [3]: 96 % of control

SMILES: O=P(O)(O)Oc1ccc(NCCO)cc1
- T/C (dose: 50.0 mg/kg/injection, schedule: Q01DX001 (ip), vehicle: saline): 107 % of control
- T/C (dose: 100.0 mg/kg/injection, schedule: Q01DX001 (ip), vehicle: saline): 99 % of control
- T/C (dose: 200.0 mg/kg/injection, schedule: Q01DX001 (ip), vehicle: saline): 100 % of control
- T/C (dose: 400.0 mg/kg/injection, schedule: Q01DX001 (ip), vehicle: saline): 100 % of control

SMILES: COC1(OC)C=NNc2nncn21
- T/C (dose: 50.0 mg/kg/injection, schedule: Q01DX005 (ip), vehicle: saline): 105 % of control
- T/C (dose: 100.0 mg/kg/injection, schedule: Q01DX005 (ip), vehicle: saline): 107 % of control

SMILES: CCC1(O)CC(OC2CC(O)C(O)C(C)O2)c2c(O)c3c(c(O)c2C1C(=O)OC)C(=O)c1cccc(O)c1C3=O (stereo unspecified)
- T/C (dose: 1.56 mg/kg/injection, schedule: Q04DX003 (ip), vehicle: water): 104 % of control
- T/C (dose: 3.13 mg/kg/injection, schedule: Q04DX003 (ip), vehicle: water): 103 % of control
- T/C (dose: 6.25 mg/kg/injection, schedule: Q04DX003 (ip), vehicle: water): 103 % of control
- T/C (dose: 12.5 mg/kg/injection, schedule: Q04DX003 (ip), vehicle: water): 109 % of control
- T/C (dose: 25.0 mg/kg/injection, schedule: Q04DX003 (ip), vehicle: water): 109 % of control
- T/C (dose: 50.0 mg/kg/injection, schedule: Q04DX003 (ip), vehicle: water): 104 % of control
- T/C (dose: 100.0 mg/kg/injection, schedule: Q04DX003 (ip), vehicle: water): 119 % of control
- T/C (dose: 200.0 mg/kg/injection, schedule: Q04DX003 (ip), vehicle: water): 109 % of control

SMILES: Cc1nnsc1C(=O)NCc1c(F)cccc1Cl
- T/C [4]: 97 % of control
- T/C [5]: 99 % of control
- T/C [6]: 98 % of control

SMILES: CCOc1c(N=Nc2ccccc2[N+](=O)[O-])c(C)nn1C(=S)S
- T/C (dose: 60.0 mg/kg/injection, schedule: Q01DX005 (ip), vehicle: Klucel + Tween-80): 103 % of control
- T/C (dose: 120.0 mg/kg/injection, schedule: Q01DX005 (ip), vehicle: Klucel + Tween-80): 97 % of control
- T/C (dose: 240.0 mg/kg/injection, schedule: Q01DX005 (ip), vehicle: Klucel + Tween-80): 92 % of control

SMILES: CS\C(N)=N/N=C/C(C)=N/N=C(/N)SC
- T/C (dose: 50.0 mg/kg/injection, schedule: Q04DX002 (ip), vehicle: saline with Tween-80): 101 % of control
- T/C (dose: 100.0 mg/kg/injection, schedule: Q04DX002 (ip), vehicle: saline with Tween-80): 100 % of control
- T/C (dose: 200.0 mg/kg/injection, schedule: Q04DX002 (ip), vehicle: saline with Tween-80): 100 % of control

SMILES: CCOC1=NC2C(O1)C1C3C2C13 (stereo unspecified)
- T/C [7]: 103 % of control
- T/C [8]: 105 % of control
- T/C [9]: 105 % of control

SMILES: O=C1CCCC12CCCC2=O
- T/C (dose: 50.0 mg/kg/injection, schedule: Q01DX009 (ip), vehicle: saline with Tween-80): 103 % of control
- T/C [10]: 100 % of control
- T/C [11]: 109 % of control

SMILES: CCOC(=O)n1oc2ccccc2c1=O
- T/C [4]: 99 % of control
- T/C [5]: 98 % of control
- T/C [6]: 98 % of control

SMILES: CC1OC(=Nc2ccccc2)NC1=O (stereo unspecified)
- T/C [12]: 97 % of control
- T/C [13]: 89 % of control

SMILES: CCOP(=O)(Nc1cc2c(=O)n(C)cnc2cc1Cl)OCC
- T/C (dose: 100.0 mg/kg/injection, schedule: Q04DX003 (ip), vehicle: saline with Tween-80): 105 % of control
- T/C (dose: 200.0 mg/kg/injection, schedule: Q04DX003 (ip), vehicle: saline with Tween-80): 100 % of control

SMILES: C=C1C[C@H](C2OC3OC(C)(C)OC3C2OCc2ccccc2)OC1=O (stereo partly specified)
- T/C [7]: 97 % of control
- T/C [8]: 98 % of control
- T/C [9]: 100 % of control

SMILES: CC(=O)c1cc2c(cc1C(C)C)CC[C@H]1[C@](C)(C#N)CCC[C@]21C
- T/C (dose: 50.0 mg/kg/injection, schedule: Q01DX009 (ip), vehicle: saline sonified): 86 % of control
- T/C (dose: 100.0 mg/kg/injection, schedule: Q01DX009 (ip), vehicle: saline sonified): 90 % of control

SMILES: O=C1C=C(O)CC2(CCCCC2)C1
- T/C [4]: 102 % of control
- T/C [5]: 100 % of control and 96 % of control
- T/C [6]: 104 % of control and 105 % of control

SMILES: Cc1ccccc1N1C(=O)OC(C)C1=O (stereo unspecified)
- T/C [12]: 97 % of control
- T/C [13]: 109 % of control
- T/C (dose: 400.0 mg/kg/injection, schedule: Q01DX001 (ip), vehicle: saline with Tween-80): 94 % of control

SMILES: Nc1ccc2c(SCCCCCCCCSc3c4ccccc4nc4cc(N)ccc34)c3ccccc3nc2c1
- T/C (dose: 60.0 mg/kg/injection, schedule: Q01DX005 (ip), vehicle: saline with Tween-80): 106 % of control
- T/C (dose: 120.0 mg/kg/injection, schedule: Q01DX005 (ip), vehicle: saline with Tween-80): 106 % of control

SMILES: Oc1ccc(N=Nc2ccc3ccc4cccc5ccc2c3c45)c2cccnc12
- T/C (dose: 25.0 mg/kg/injection, schedule: Q04DX003 (ip), vehicle: Klucel (hydroxypropylcellulose) (HPC)): 101 % of control
- T/C (dose: 50.0 mg/kg/injection, schedule: Q04DX003 (ip), vehicle: Klucel (hydroxypropylcellulose) (HPC)): 101 % of control
- T/C (dose: 100.0 mg/kg/injection, schedule: Q04DX003 (ip), vehicle: Klucel (hydroxypropylcellulose) (HPC)): 100 % of control

SMILES: O=C(O)c1cc2ccccc2c(Br)c1O.O=[N+]([O-])C1CCC(O)C2[N-]CCCC21.[Cu+]
- T/C [1]: 97 % of control
- T/C [2]: 100 % of control and 106 % of control
- T/C [3]: 106 % of control and 98 % of control

SMILES: CCOC(=O)C1n2c(=O)n(-c3ccccc3)c(=O)n21
- T/C (dose: 50.0 mg/kg/injection, schedule: Q01DX005 (ip), vehicle: Klucel + Tween-80): 96 % of control
- T/C (dose: 100.0 mg/kg/injection, schedule: Q01DX005 (ip), vehicle: Klucel + Tween-80): 87 % of control
- T/C (dose: 200.0 mg/kg/injection, schedule: Q01DX005 (ip), vehicle: Klucel + Tween-80): 93 % of control

SMILES: CC1=CSCC(=O)N1
- T/C [10]: 104 % of control
- T/C [11]: 95 % of control

SMILES: O=[N+]([O-])C1=CC(=N/Br)/C=CC/1=N/Br
- T/C [7]: 94 % of control
- T/C [8]: 100 % of control
- T/C [9]: 118 % of control

SMILES: CCSc1nc2ccc(NCn3nnc4ccccc43)cc2s1
- T/C [14]: 98 % of control
- T/C [15]: 89 % of control
- T/C [16]: 90 % of control

SMILES: CCCCc1c[nH]n(C(N)=NCCSCc2nc[nH]c2C)c1=O
- T/C [14]: 94 % of control
- T/C [15]: 98 % of control
- T/C [16]: 93 % of control

SMILES: COc1cc(Oc2c(C)c(Cl)c(OC)c(Cl)c2OC)c2c(c1Cl)COC2=O
- T/C (dose: 7.5 mg/kg/injection, schedule: Q01DX005 (ip), vehicle: Klucel (hydroxypropylcellulose) (HPC)): 97 % of control
- T/C (dose: 15.0 mg/kg/injection, schedule: Q01DX005 (ip), vehicle: Klucel (hydroxypropylcellulose) (HPC)): 97 % of control
- T/C (dose: 30.0 mg/kg/injection, schedule: Q01DX005 (ip), vehicle: Klucel (hydroxypropylcellulose) (HPC)): 100 % of control
